# According to patent publication US20210369680A1, “METHODS OF TREATING DISEASES AND DISORDERS RESULTING FROM BETA CORONAVIRUS INFECTION” (T3D Therapeutics, Inc., priority 2020, published 2021):
# Experiment: Fasted plasma metabolomics, clinical study
# Assay type: in vivo, human
# Protocol: Plasma Metabolomic Data from Clinical Study with Compound of Example 11
# Fasted plasma metabolomics biomarkers were examined seeking evidence of systemic and brain pharmacological effects of Compound from Example 11. Over 800 chemically defined metabolites were examined for each dose group and a ratio EOT/BL) was calculated with an associated p value. Four dose groups were tested, 3, 10 30 and 90 mg. In general, the 30 and 90 mg dose groups had the largest impact on the metabolomics profile, each with 120 metabolites with p<0.05, while the 3 and 10 mg groups had smaller effects (40 and 61 with p<0.05 respectively). The metabolites were split into about 60 families. […] BCAAs are positively correlated with insulin resistance and diabetes. […] Some of these metabolites, such as isovaleryl and isobutyryl carnitine are part of a principal component shown to be positively associated with insulin resistance. The numbers in Table 7 are ratios of the dose group averages end of treatment (EOT) to baseline (BL). A green box indicates a statistically significant (p<0.05) decrease in metabolite. The light green indicates the p value is between 0.05 and 0.1. Statistical comparisons between doses and visits were conducted using Two-Way Repeated Measure ANOVA. Reference is made to Newgard CB, 2017. Metabolomics and Metabolic Disease, Where Do We Stand? Cell Metabolism 25: 43-56, which is incorporated by reference with regard to the example.
structure (smiles),measurement,setting,value
"CCc1oc(-c2ccc(OC)cc2)nc1CCOc1ccc2c(c1)CC[C@H]2CC(=O)[O-].[Na+] [Example 11, Sodium (S)-2-(5-(2-(5-ethyl-2-(4-methoxyphenyl)oxazol-4-yl)ethoxy)-2,3-dihydro-1H-inden-1-yl)acetate]","2-methylbutyrylcarnitine (C5), ratio EOT/BL",3 mg,0.99
same,"3-hydroxybutyrlcarnite, ratio EOT/BL",3 mg,1.2
same,"Adrenoylcarnitine (C22:4)*, ratio EOT/BL",3 mg,1.41
same,"Arachidonoylcarnitine (C20:4), ratio EOT/BL",3 mg,1.34
same,"Arachidoylcarnitine (C20)*, ratio EOT/BL",3 mg,1.11
same,"Ceramide (d18:2/24:1, d18:1/24:2), ratio EOT/BL",3 mg,1.08
same,"Dihomo-linoleoylcarnitine (C20:2)*, ratio EOT/BL",3 mg,1.24
same,"Docosapentaenoylcarnitine (C22:5n3)*, ratio EOT/BL",3 mg,1.39
same,"Eicosenoylcarnitine (C20:1), ratio EOT/BL",3 mg,1.22
same,"Linolenoylcarnitine (C18:3)*, ratio EOT/BL",3 mg,1.17
same,"Linoleoylcarnitine (C18:2)*, ratio EOT/BL",3 mg,1.22
same,"Margaroylcarnitine*, ratio EOT/BL",3 mg,1.03
same,"Myristoycarnitine (C14), ratio EOT/BL",3 mg,1.32
same,"N-acetylleucine, ratio EOT/BL",3 mg,0.98
same,"N-palmitoyl-sphingosince (d18:1/16:0), ratio EOT/BL",3 mg,1.06
same,"N-stearoyl-sphinogosince (d18:1/18:0), ratio EOT/BL",3 mg,1.05
same,"Oleoylcarnitine (C18:1), ratio EOT/BL",3 mg,1.34
same,"Palmitoleoylcarnitine (C16:1)*, ratio EOT/BL",3 mg,1.44
same,"Palmitoylcaritine (C16), ratio EOT/BL",3 mg,1.25
same,"Stearoylcarnitine (C18), ratio EOT/BL",3 mg,1.11
same,"acetylcarnitine (C2), ratio EOT/BL",3 mg,1.14
same,"ceramide (d16:1/24:1, d18:1/22:1), ratio EOT/BL",3 mg,1.13
same,"ceramide (d18:1/14:0, d16:1/16:0), ratio EOT/BL",3 mg,1.1
same,"ceramide (d18:1/17:0, d17:1/18:0), ratio EOT/BL",3 mg,1.03
same,"ceramide (d18:1/20:0, d16:1/22:0 d20:1/18:0), ratio EOT/BL",3 mg,1.12
same,"isobutyrylcarnitine (C4), ratio EOT/BL",3 mg,0.95
same,"isoleucine, ratio EOT/BL",3 mg,0.93
same,"isovalerylcarnitine (C5), ratio EOT/BL",3 mg,1.11
same,"laurylcarnitine (C12), ratio EOT/BL",3 mg,1.4
same,"leucine, ratio EOT/BL",3 mg,0.95
same,number of metabolites with p<0.05,3 mg,40
same,"octanoylcarnitine (C8), ratio EOT/BL",3 mg,1.33
same,"valine, ratio EOT/BL",3 mg,0.93
same,"2-methylbutyrylcarnitine (C5), ratio EOT/BL",10 mg,1.02
same,"3-hydroxybutyrlcarnite, ratio EOT/BL",10 mg,1.19
same,"Adrenoylcarnitine (C22:4)*, ratio EOT/BL",10 mg,1.23
same,"Arachidonoylcarnitine (C20:4), ratio EOT/BL",10 mg,1.23
same,"Arachidoylcarnitine (C20)*, ratio EOT/BL",10 mg,1.09
same,"Ceramide (d18:2/24:1, d18:1/24:2), ratio EOT/BL",10 mg,0.96
same,"Dihomo-linoleoylcarnitine (C20:2)*, ratio EOT/BL",10 mg,1.24
same,"Docosapentaenoylcarnitine (C22:5n3)*, ratio EOT/BL",10 mg,1.18
same,"Eicosenoylcarnitine (C20:1), ratio EOT/BL",10 mg,1.03
same,"Linolenoylcarnitine (C18:3)*, ratio EOT/BL",10 mg,1.19
same,"Linoleoylcarnitine (C18:2)*, ratio EOT/BL",10 mg,1.21
same,"Margaroylcarnitine*, ratio EOT/BL",10 mg,1.15
same,"Myristoycarnitine (C14), ratio EOT/BL",10 mg,1.13
same,"N-acetylleucine, ratio EOT/BL",10 mg,1
same,"N-palmitoyl-sphingosince (d18:1/16:0), ratio EOT/BL",10 mg,1.02
same,"N-stearoyl-sphinogosince (d18:1/18:0), ratio EOT/BL",10 mg,0.98
same,"Oleoylcarnitine (C18:1), ratio EOT/BL",10 mg,1.1
same,"Palmitoleoylcarnitine (C16:1)*, ratio EOT/BL",10 mg,1.11
same,"Palmitoylcaritine (C16), ratio EOT/BL",10 mg,1.12
same,"Stearoylcarnitine (C18), ratio EOT/BL",10 mg,1.19
same,"acetylcarnitine (C2), ratio EOT/BL",10 mg,1.03
same,"ceramide (d16:1/24:1, d18:1/22:1), ratio EOT/BL",10 mg,.095
same,"ceramide (d18:1/14:0, d16:1/16:0), ratio EOT/BL",10 mg,1.05
same,"ceramide (d18:1/17:0, d17:1/18:0), ratio EOT/BL",10 mg,1.12
same,"ceramide (d18:1/20:0, d16:1/22:0 d20:1/18:0), ratio EOT/BL",10 mg,1.05
same,"isobutyrylcarnitine (C4), ratio EOT/BL",10 mg,1.01
same,"isoleucine, ratio EOT/BL",10 mg,0.94
same,"isovalerylcarnitine (C5), ratio EOT/BL",10 mg,0.97
same,"laurylcarnitine (C12), ratio EOT/BL",10 mg,1.17
same,"leucine, ratio EOT/BL",10 mg,0.98
same,number of metabolites with p<0.05,10 mg,61
same,"octanoylcarnitine (C8), ratio EOT/BL",10 mg,1.21
same,"valine, ratio EOT/BL",10 mg,1.06
same,"2-methylbutyrylcarnitine (C5), ratio EOT/BL",30 mg,0.96
same,"3-hydroxybutyrlcarnite, ratio EOT/BL",30 mg,1.26
same,"Adrenoylcarnitine (C22:4)*, ratio EOT/BL",30 mg,1.44
same,"Arachidonoylcarnitine (C20:4), ratio EOT/BL",30 mg,1.34
same,"Arachidoylcarnitine (C20)*, ratio EOT/BL",30 mg,1.16
same,"Ceramide (d18:2/24:1, d18:1/24:2), ratio EOT/BL",30 mg,0.92
same,"Dihomo-linoleoylcarnitine (C20:2)*, ratio EOT/BL",30 mg,1.47
same,"Docosapentaenoylcarnitine (C22:5n3)*, ratio EOT/BL",30 mg,1.65
same,"Eicosenoylcarnitine (C20:1), ratio EOT/BL",30 mg,1.43
same,"Linolenoylcarnitine (C18:3)*, ratio EOT/BL",30 mg,1.35
same,"Linoleoylcarnitine (C18:2)*, ratio EOT/BL",30 mg,1.37
same,"Margaroylcarnitine*, ratio EOT/BL",30 mg,1.14
same,"Myristoycarnitine (C14), ratio EOT/BL",30 mg,1.29
same,"N-acetylleucine, ratio EOT/BL",30 mg,0.91
same,"N-palmitoyl-sphingosince (d18:1/16:0), ratio EOT/BL",30 mg,0.89
same,"N-stearoyl-sphinogosince (d18:1/18:0), ratio EOT/BL",30 mg,0.82
same,"Oleoylcarnitine (C18:1), ratio EOT/BL",30 mg,1.51
same,"Palmitoleoylcarnitine (C16:1)*, ratio EOT/BL",30 mg,1.66
same,"Palmitoylcaritine (C16), ratio EOT/BL",30 mg,1.29
same,"Stearoylcarnitine (C18), ratio EOT/BL",30 mg,1.24
same,"acetylcarnitine (C2), ratio EOT/BL",30 mg,1.19
same,"ceramide (d16:1/24:1, d18:1/22:1), ratio EOT/BL",30 mg,0.71
same,"ceramide (d18:1/14:0, d16:1/16:0), ratio EOT/BL",30 mg,0.86
same,"ceramide (d18:1/17:0, d17:1/18:0), ratio EOT/BL",30 mg,0.91
same,"ceramide (d18:1/20:0, d16:1/22:0 d20:1/18:0), ratio EOT/BL",30 mg,0.83
same,"isobutyrylcarnitine (C4), ratio EOT/BL",30 mg,0.77
same,"isoleucine, ratio EOT/BL",30 mg,0.96
same,"isovalerylcarnitine (C5), ratio EOT/BL",30 mg,0.99
same,"laurylcarnitine (C12), ratio EOT/BL",30 mg,1.35
same,"leucine, ratio EOT/BL",30 mg,1
same,number of metabolites with p<0.05,30 mg,120
same,"octanoylcarnitine (C8), ratio EOT/BL",30 mg,1.44
same,"valine, ratio EOT/BL",30 mg,0.96
same,"2-methylbutyrylcarnitine (C5), ratio EOT/BL",90 mg,0.81
same,"3-hydroxybutyrlcarnite, ratio EOT/BL",90 mg,1.53
same,"Adrenoylcarnitine (C22:4)*, ratio EOT/BL",90 mg,1.54
same,"Arachidonoylcarnitine (C20:4), ratio EOT/BL",90 mg,1.31
same,"Arachidoylcarnitine (C20)*, ratio EOT/BL",90 mg,1.17
same,"Ceramide (d18:2/24:1, d18:1/24:2), ratio EOT/BL",90 mg,0.99
same,"Dihomo-linoleoylcarnitine (C20:2)*, ratio EOT/BL",90 mg,1.54
same,"Docosapentaenoylcarnitine (C22:5n3)*, ratio EOT/BL",90 mg,1.45
same,"Eicosenoylcarnitine (C20:1), ratio EOT/BL",90 mg,1.61
same,"Linolenoylcarnitine (C18:3)*, ratio EOT/BL",90 mg,1.25
same,"Linoleoylcarnitine (C18:2)*, ratio EOT/BL",90 mg,1.22
same,"Margaroylcarnitine*, ratio EOT/BL",90 mg,1.21
same,"Myristoycarnitine (C14), ratio EOT/BL",90 mg,1.56
same,"N-acetylleucine, ratio EOT/BL",90 mg,0.82
same,"N-palmitoyl-sphingosince (d18:1/16:0), ratio EOT/BL",90 mg,0.89
same,"N-stearoyl-sphinogosince (d18:1/18:0), ratio EOT/BL",90 mg,0.82
same,"Oleoylcarnitine (C18:1), ratio EOT/BL",90 mg,1.46
same,"Palmitoleoylcarnitine (C16:1)*, ratio EOT/BL",90 mg,1.79
same,"Palmitoylcaritine (C16), ratio EOT/BL",90 mg,1.31
same,"Stearoylcarnitine (C18), ratio EOT/BL",90 mg,1.18
same,"acetylcarnitine (C2), ratio EOT/BL",90 mg,1.23
same,"ceramide (d16:1/24:1, d18:1/22:1), ratio EOT/BL",90 mg,0.84
same,"ceramide (d18:1/14:0, d16:1/16:0), ratio EOT/BL",90 mg,0.77
same,"ceramide (d18:1/17:0, d17:1/18:0), ratio EOT/BL",90 mg,0.84
same,"ceramide (d18:1/20:0, d16:1/22:0 d20:1/18:0), ratio EOT/BL",90 mg,0.84
same,"isobutyrylcarnitine (C4), ratio EOT/BL",90 mg,0.57
same,"isoleucine, ratio EOT/BL",90 mg,0.84
same,"isovalerylcarnitine (C5), ratio EOT/BL",90 mg,0.68
same,"laurylcarnitine (C12), ratio EOT/BL",90 mg,1.56
same,"leucine, ratio EOT/BL",90 mg,0.8
same,number of metabolites with p<0.05,90 mg,120
same,"octanoylcarnitine (C8), ratio EOT/BL",90 mg,1.58
same,"valine, ratio EOT/BL",90 mg,0.79
